The target of this assay is T1, menin/MLL (terbium chelate-labeled menin, FITC-MBM1 peptide) (Homo sapiens, UniProt O00255, T541A).
T1 construct: Menin (a.a 1-610-6xhis tag, 2.3 mg/mL in 20 mM Hepes)
T1 sequence (O00255 with tags, fused parts or gaps T541A): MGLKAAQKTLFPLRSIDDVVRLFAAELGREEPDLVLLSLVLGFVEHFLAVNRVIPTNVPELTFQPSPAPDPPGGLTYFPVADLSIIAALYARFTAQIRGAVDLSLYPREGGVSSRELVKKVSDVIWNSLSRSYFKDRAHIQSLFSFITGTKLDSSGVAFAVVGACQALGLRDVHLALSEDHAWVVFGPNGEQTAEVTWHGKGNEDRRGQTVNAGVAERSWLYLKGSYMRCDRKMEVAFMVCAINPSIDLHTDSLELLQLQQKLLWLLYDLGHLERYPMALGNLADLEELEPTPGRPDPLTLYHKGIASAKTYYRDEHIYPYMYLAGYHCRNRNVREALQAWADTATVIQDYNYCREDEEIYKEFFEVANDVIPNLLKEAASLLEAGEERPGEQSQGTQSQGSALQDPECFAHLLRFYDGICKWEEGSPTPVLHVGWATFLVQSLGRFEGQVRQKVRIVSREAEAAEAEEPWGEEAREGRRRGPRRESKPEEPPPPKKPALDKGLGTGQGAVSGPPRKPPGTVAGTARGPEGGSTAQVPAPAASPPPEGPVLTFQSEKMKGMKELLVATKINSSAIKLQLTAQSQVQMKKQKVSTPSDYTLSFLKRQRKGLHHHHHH
As to the kind of experiment: Menin/MLL homogenous time-resolved fluorescence (HTRF) assay. Type of assay: binding. Particulars: 30 min incubation. The method in brief: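 Competition binding read by time-resolved FRET (FITC 520 nm over terbium 490 nm) after compound meets labeled menin 1-610-His […] for 30 min, then FITC-MBM1 (75 nM) for 15 min, ambient temperature, 0.5% DMSO. Eleven-point four-fold dilutions, usually starting at 10 μM, fitted to four-parameter curves for IC50.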
(In general: Time-resolved FRET reads energy transfer from a long-lived donor to a nearby acceptor.)

A word on the IC50: it is the concentration at which inhibition is half-maximal. A low value points to higher potency. The compound `Cc1cncc2c1c(C[C@@H]1CCN(CC3CCC(O)CC3)C1)cn2-c1ccc(F)cc1C(=O)N(C)C(C)C` (stereo partly drawn) [Compound 205] displayed an IC50 of 0.106 nM.
Take `CC(=O)N1CC2CC(C1)C2N1CC[C@@H](Cc2cn(-c3ccc(F)cc3C(=O)N(C)C(C)C)c3cncc(C)c23)C1` (stereo partly drawn) [Compound 209]: the IC50 was 0.202 nM.
To `Cc1cncc2c1c(C[C@@H]1CCN(C[C@H]3CCNC(=O)CC3)C1)cn2-c1ccc(F)cc1C(=O)N1[C@H](C)CC[C@H]1C` (single isomer, unassigned) [Compound 352a] belongs 0.102 nM; to `CC(=O)N1CCC(N2CC[C@H](Cc3cn(-c4ccc(F)cc4C(=O)N(C)C(C)C)c4cncc(C)c34)C2)C(C)C1` (single isomer, unassigned) [Compound 137a], 0.063 nM.
To `COCCN(C)CCC[C@@H](C(C)C)N1CC[C@H](Cc2cn(-c3ccc(F)cc3C(=O)N(C)C(C)C)c3cncc(Cl)c23)C1` (single isomer, unassigned) [Compound 4b] belongs 0.094 nM; to `Cc1cncc2c1c(CC1CN(CC3CCOCC3)C1)cn2-c1ccc(F)cc1C(=O)N(CCO)C(C)C` [Compound 281], 0.058 nM.
To `Cc1cncc2c1c(CC1CN(C[C@@H]3CCOC3)C1)cn2-c1ccc(F)cc1C(=O)N(C)C(C)C` (single isomer, unassigned) [Compound 191b] belongs 0.071 nM; to `Cc1cncc2c1c(C[C@@H]1CCN([C@@H](CO)C3CCCOC3)C1)cn2-c1ccc(F)cc1C(=O)N(C)C(C)C` (single isomer, unassigned) [Compound 198a], 0.034 nM.
As for `COCCN(C)CCC[C@H](C(C)C)N1CC[C@H](Cc2cn(-c3ccc(F)cc3C(=O)N(C)C(C)C)c3cncc(Cl)c23)C1` (single isomer, unassigned) [Compound 4a], the concentration for half-maximal inhibition (IC50) is 0.301 nM.
To `CC(=O)N1CCC(CN2CC[C@@H](Cc3cn(-c4ccc(F)cc4C(=O)N4CCC5CC54)c4cncc(C)c34)C2)CC1` (single isomer, unassigned) [Compound 311a] belongs 0.037 nM.
To `CC(=O)NC1CCC(N2CC[C@@H](Cc3cn(-c4ccc(F)cc4C(=O)N(C)C(C)C)c4cncc(C)c34)C2)CC1` (stereo partly drawn) [Compound 200] belongs 0.909 nM; to `COC[C@H](C1CCCCO1)N1CC[C@@H](Cc2cn(-c3ccc(F)cc3C(=O)N(C)C(C)C)c3cncc(C)c23)C1` (single isomer, unassigned) [Compound 165b], 0.07 nM.
To `Cc1cncc2c1c(C[C@@H]1CCN(C[C@H]3CC[C@@H](C(=O)N4CCC4)CC3)C1)cn2-c1ccc(F)cc1C(=O)N(C)C(C)C` [Compound 178] belongs 0.055 nM; to `CNC(=O)[C@H]1CC[C@H](CN2CC([C@H](C)c3cn(-c4ccc(F)cc4C(=O)N(C)C(C)C)c4cncc(C)c34)C2)CC1` (single isomer, unassigned) [Compound 164b], 0.025 nM.
On to `COCCN(C)CCCC(C(C)C)N1CCC(Cc2cn(-c3ccc(F)cc3C(=O)N(C)C(C)C)c3cncc(F)c23)C1` (stereo not drawn) [Compound 6], for which the 50% inhibitory concentration (IC50) was 0.288 nM.
To `Cc1cncc2c1c(CC1CCN(CC3CCC(=O)N(C)CC3)C1)cn2-c1ccc(F)cc1C(=O)N(C)C(C)C` (single isomer, unassigned) [Compound 184a] belongs 0.041 nM.
To `CNC(=O)[C@H]1CC[C@H](CN2CC(Cc3cn(-c4ccc(F)cc4C(=O)N(C)C(C)C)c4cncc(C)c34)C2)CC1` [Compound 74] belongs 0.034 nM; to `CN=[S@](=O)(c1cc(F)ccc1-n1cc(C[C@@H]2CCN(CC3CCN(C(C)=O)CC3)C2)c2c(C)cncc21)C(C)C` (single isomer, unassigned) [Compound 128a], 0.151 nM; to `CN=S(=O)(c1cc(F)ccc1-n1cc(CC2CCN(CC3CCOCC3)C2)c2c(C)cncc21)C(C)C` (single isomer, unassigned) [Compound 77b], 0.07 nM.
To `CC(=O)N1CCC(CN2CC[C@@H](Cc3cn(-c4ccc(F)cc4C(=O)N4CC5CC4CO5)c4cncc(C)c34)C2)CC1` (stereo partly drawn) [Compound 312] belongs 0.058 nM; to `CON(C)C(=O)N1CCC(CN2CCC(Cc3cn(-c4ccc(F)cc4C(=O)N(C)C(C)C)c4cncc(C)c34)CC2)CC1` [Compound 203], 0.069 nM; to `Cc1cncc2c1c(C[C@@H]1CCN(C[C@H]3CCOC3)C1)cn2-c1ccc(F)cc1C(=O)N(C)C(C)C` (single isomer, unassigned) [Compound 190a], 0.101 nM.
As for `Cc1cncc2c1c(C[C@@H]1CCN(C[C@@H]3CCNC(=O)CC3)C1)cn2-c1ccc(F)cc1C(=O)N1[C@H](C)CC[C@H]1C` (single isomer, unassigned) [Compound 352b], the concentration for half-maximal inhibition (IC50) stood at 0.247 nM.
To `Cc1cncc2c1c(C[C@@H]1CCN(CC3CCNC(=O)CC3)C1)cn2-c1ccc(F)cc1C(=O)N1CCC[C@H]1C` (single isomer, unassigned) [Compound 353a] belongs 0.094 nM; to `CC(=O)N1CCN(CCCC(C(C)C)N2CC[C@H](Cc3cn(-c4ccc(F)cc4C(=O)N(C)C(C)C)c4cncc(C)c34)C2)CC1` (mixture of isomers) [Compound 9], 0.138 nM; to `CC(=O)N1CCC(CN2CC[C@@H](Cc3cn(-c4ccc(F)cc4C(=O)N(CC(C)O)C(C)C)c4cncc(C)c34)C2)CC1` (stereo partly drawn) [Compound 320], 0.078 nM.
To `Cc1cncc2c1c(CC1CCN(CC3CCN(C(=O)[C@H](C)O)CC3)C1)cn2-c1ccc(F)cc1C(=O)N(C)C(C)C` (single isomer, unassigned) [Compound 86] belongs 0.042 nM; to `CC(=O)N1CCC(C(C)N2CCC(Cc3cn(-c4ccc(F)cc4C(=O)N(C)C(C)C)c4cncc(C)c34)C2)CC1` (single isomer, unassigned) [Compound 116a], 0.075 nM; to `COCC(=O)N1CCC(CN2CC[C@@H](Cc3cn(-c4ccc(F)cc4C(=O)N(C)C(C)C)c4cncc(C)c34)C2)CC1` (single isomer, unassigned) [Compound 136], approximately 0.094 nM.
`Cc1cncc2c1c(C[C@@H]1CCN(CC3CCN(C(=O)C(C)C)CC3)C1)cn2-c1ccc(F)cc1C(=O)N1CCC[C@H]1CO` [Compound 328] returned an IC50 of 0.101 nM. This counts as sub-nanomolar.
With `CC(=O)N1CCC(CN2CC[C@@H](Cc3cn(-c4ccc(F)cc4C(=O)N4[C@@H](C)CC[C@@H]4C)c4cncc(C)c34)C2)CC1` [Compound 316], the IC50 came to 0.055 nM.
To `CNC(=O)N1CCC(CN2CCC(Cc3cn(-c4ccc(F)cc4C(=O)N(C)C(C)C)c4cncc(C)c34)CC2)CC1` [Compound 202] belongs 0.081 nM; to `Cc1cncc2c1c(C[C@@H]1CCN([C@H](C)C3CCOCC3)C1)cn2-c1ccc(F)cc1[S@](=N)(=O)C(C)C` (single isomer, unassigned) [Compound 180a], 0.143 nM; to `Cc1cncc2c1c(C[C@@H]1CCN(CC3CCOCC3)C1)cn2-c1ccc(F)cc1S(=N)(=O)C(C)C` (mixture of isomers) [Compound 78], 0.299 nM.
To `Cc1cncc2c1c(C[C@@H]1CCN(CC3CCNC(=O)C3)C1)cn2-c1ccc(F)cc1C(=O)N(C)C(C)C` (mixture of isomers) [Compound 212] belongs 0.115 nM.
To `CC(=O)NC1CCC(N2CC[C@H](Cc3cn(-c4ccc(F)cc4C(=O)N(C)C(C)C)c4cncc(C)c34)C2)CC1` (stereo partly drawn) [Compound 211] belongs 0.032 nM.
Consider `Cc1cncc2c1c(CC1CCN(CC3CCN(C(=O)N4CCOCC4)CC3)CC1)cn2-c1ccc(F)cc1C(=O)N(C)C(C)C` [Compound 204], for which inhibition was half-maximal at 0.091 nM (IC50).
To `Cc1cncc2c1c(C[C@@H]1CCN(CC3CCC(O)CC3)C1)cn2-c1ccc(F)cc1C(=O)N(C)C(C)C` (single isomer, unassigned) [Compound 205a] belongs 0.049 nM; to `CC(=O)N1CCC(CN2CC[C@@H](Cc3cn(-c4ccc(F)cc4C(=O)N4CCC5CC54)c4cncc(C)c34)C2)CC1` (stereo partly drawn) [Compound 311], 0.031 nM.
To `COCCN(C)CCCC(C(C)C)N1CC[C@H](Cc2cn(-c3ccc(F)cc3C(=O)N(C)C(C)C)c3cncc(Cl)c23)C1` (stereo partly drawn) [Compound 4] belongs 0.016 nM; to `CC(=O)N1CCC(CN2CCC(Cc3cn(-c4ccc(F)cc4C(=O)N(C)C(C)C)c4cncc(C)c34)C2C)CC1` (stereo not drawn) [Compound 228], 0.061 nM.
To `CN=S(=O)(c1cc(F)ccc1-n1cc(CC2CCN(CC3CCOCC3)C2)c2c(C)cncc21)C(C)C` (stereo not drawn) [Compound 77] belongs 0.191 nM; to `Cc1cncc2c1c(C[C@H]1CCN([C@H](C)C3CCOCC3)C1)cn2-c1ccc(F)cc1[S@](=N)(=O)C(C)C` (single isomer, unassigned) [Compound 181a], 0.066 nM; to `Cc1cncc2c1c(CC1CN(CC3CCOCC3)C1)cn2-c1ccc(F)cc1C(=O)N1CC2CC1CO2` (stereo not drawn) [Compound 264], 0.034 nM.
As to `CC(=O)N1CCC(CN2CC[C@@H](Cc3cn(-c4ccc(F)cc4C(=O)N4CCC5CC54)c4cncc(C)c34)C2)CC1` (single isomer, unassigned) [Compound 311b], it took 0.077 nM to reach half-maximal inhibition (IC50).

These data come from patent publication US20230250096A1, “SUBSTITUTED PHENYL-1H-PYRROLO[2,3-c] PYRIDINE DERIVATIVES” (Janssen Pharmaceutica NV, priority 2021, published 2023).
